This note sets out measurements from US10428017B2, “Modulators of the cystic fibrosis transmembrane conductance regulator protein and methods of use” (AbbVie S.à.r.l., priority 2017, dated 2019).

This assay deals with T1, F508delCFTR (Homo sapiens, UniProt P13569, DEL508-508).
T1 construct: expressed in transfected cells; host or cells: CFBE4lo-F508delCFTR-HRP cells (human lung derived epithelial cell line, doxycycline-inducible)
In words: Cell Surface Expression-Horse Radish Peroxidase (CSE-HRP) Assay. It counts as cell-based. Particulars: for EC50: CFBE4lo-F508delCFTR-HRP cells, 18-24 hours at 33° C.; for Emax / Maximum % activity (with co-corrector): maximum at any tested concentration (up to 20 μM), normalized to on-plate positive control (2 μM co-corrector); for Maximum % activity (with co-corrector): with co-corrector 2 μM. On the procedure: Cell Surface Expression-Horse Radish Peroxidase (CSE-HRP) Assay
A cellular assay for measuring the F508delCFTR cell surface expression after correction with test compounds either without or with a co-corrector (2 μM of 3-[(2R,4R)-4-({[1-(2,2-difluoro-1,3-benzodioxol-5-yl)cyclopropyl]carbonyl}amino)-7-methoxy-3,4-dihydro-2H-chromen-2-yl]benzoic acid), was developed in human lung derived epithelial cell line (CFBE4lo−) (Veit G et al, (2012) Mol Biol Cell. 23(21): 4188-4202). The development was achieved by expressing the F508delCFTR mutation along with a horseradish peroxidase (HRP) in the fourth exofacial loop, and then measuring the HRP activity using luminescence readout from these cells, CFBE4lo-F508delCFTR-HRP, that were incubated overnight with the test corrector compounds, either without or with the co-corrector. For this primary assay, the CFBE4lo-F508delCFTR-HRP cells were plated in 384-well plates (Greiner Bio-one; Cat 781080) at 4,000 cells/well along with 0.5 μg/mL doxycycline to induce the F508delCFTR-HRP expression and further incubated at 37° C., 5% CO2 for 72 hours. The test compounds were then added either without or with a co-corrector at the required concentrations and further incubated for 18-24 hours at 33° C. The highest concentration tested was 20 μM with an 8-point concentration response curve using a 3-fold dilution in both the test compound without or with the co-corrector. Three replicate plates were run to determine one EC50. All plates contained negative controls (dimethyl sulfoxide, DMSO) and positive control (2 μM of 3-[(2R,4R)-4-({[1-(2,2-difluoro-1,3-benzodioxol-5-yl)cyclopropyl]carbonyl}amino)-7-methoxy-3,4-dihydro-2H-chromen-2-yl]benzoic acid) as well as on-plate concentration response of the positive control. Post incubation, the plates were washed 5× times with Dulbecco's phosphate buffered saline (DPBS), followed by the addition of the HRP substrate, luminol (50 μL), and measuring the HRP activity using luminescence readout on EnVision® Multilabel Plate Reader (Perkin Elmer; product number 2104-0010). The raw counts from the experiment were analyzed using Accelrys® Assay Explorer v3.3.
Z′ greater than 0.5 was used as passing quality control criteria for the plates.
The Z′ is defined as: 1−[3*SDPositive Control+3*SDNegative Control/Absolute(Meanpostivie Control−MeanNegative Control)] wherein “SD” is standard deviation.
The % activity measured at each of the 8 test concentrations of the test compound added either without or with a co-corrector (2 μM of 3-[(2R,4R)-4-({[1-(2,2-difluoro-1,3-benzodioxol-5-yl)cyclopropyl]carbonyl}amino)-7-methoxy-3,4-dihydro-2H-chromen-2-yl]benzoic acid) was normalized to the on-plate positive control using the following formulae: % activity(Test compound without co-corrector)=[(test compound without co-corrector response−DMSO response)/(positive control response−DMSO response)]*100 % activity(Test compound with co-corrector)=[(test compound with co-corrector response−DMSO response)/(positive control response−DMSO response)]*100
The maximum % activity achieved for the test compound either without or with a co-corrector at any tested concentration is presented in Table 1 along with the respective EC50's calculated using the following general sigmoidal curve with variable Hill slope equation (described as Model 42 in the Accelrys® Assay Explorer v3.3 software): y=(a−d)/(1+(x/c)^b)+d
General sigmoidal curve with concentration, response, top, bottom, EC50 and Hill slope. This model describes a sigmoidal curve with an adjustable baseline, a. The equation can be used to fit curves where response is either increasing or decreasing with respect to the independent variable, “x”.
“x” is a concentration of drug under test.
“a” is the maximum response, and “d” is the minimum response
“c” is the inflection point (EC50) for the curve. That is, “y” is halfway between the lower and upper asymptotes when x=c.
“b” is the slope-factor or Hill coefficient. […]

The mark [1] stands for this setting: test compound without co-corrector, HRP luminescence readout, read-out: EC50 (without co-corrector).
Where [2] appears, read: test compound without co-corrector.
Setting [3] is: with co-corrector 2 μM 3-[(2R,4R)-4-({[1-(2,2-difluoro-1,3-benzodioxol-5-yl)cyclopropyl]carbonyl}amino)-7-methoxy-3,4-dihydro-2H-chromen-2-yl]benzoic acid, read-out: EC50 (with co-corrector).

Each structure is given as a SMILES string. Where two headings read alike, the source gives them in different places.

What is called EC50 is the midpoint of the concentration-response curve. As a reminder, the Emax is the maximal effect, on the per cent scale that the assay sets.

T1 sequence (P13569 with tags, fused parts or gaps DEL508-508): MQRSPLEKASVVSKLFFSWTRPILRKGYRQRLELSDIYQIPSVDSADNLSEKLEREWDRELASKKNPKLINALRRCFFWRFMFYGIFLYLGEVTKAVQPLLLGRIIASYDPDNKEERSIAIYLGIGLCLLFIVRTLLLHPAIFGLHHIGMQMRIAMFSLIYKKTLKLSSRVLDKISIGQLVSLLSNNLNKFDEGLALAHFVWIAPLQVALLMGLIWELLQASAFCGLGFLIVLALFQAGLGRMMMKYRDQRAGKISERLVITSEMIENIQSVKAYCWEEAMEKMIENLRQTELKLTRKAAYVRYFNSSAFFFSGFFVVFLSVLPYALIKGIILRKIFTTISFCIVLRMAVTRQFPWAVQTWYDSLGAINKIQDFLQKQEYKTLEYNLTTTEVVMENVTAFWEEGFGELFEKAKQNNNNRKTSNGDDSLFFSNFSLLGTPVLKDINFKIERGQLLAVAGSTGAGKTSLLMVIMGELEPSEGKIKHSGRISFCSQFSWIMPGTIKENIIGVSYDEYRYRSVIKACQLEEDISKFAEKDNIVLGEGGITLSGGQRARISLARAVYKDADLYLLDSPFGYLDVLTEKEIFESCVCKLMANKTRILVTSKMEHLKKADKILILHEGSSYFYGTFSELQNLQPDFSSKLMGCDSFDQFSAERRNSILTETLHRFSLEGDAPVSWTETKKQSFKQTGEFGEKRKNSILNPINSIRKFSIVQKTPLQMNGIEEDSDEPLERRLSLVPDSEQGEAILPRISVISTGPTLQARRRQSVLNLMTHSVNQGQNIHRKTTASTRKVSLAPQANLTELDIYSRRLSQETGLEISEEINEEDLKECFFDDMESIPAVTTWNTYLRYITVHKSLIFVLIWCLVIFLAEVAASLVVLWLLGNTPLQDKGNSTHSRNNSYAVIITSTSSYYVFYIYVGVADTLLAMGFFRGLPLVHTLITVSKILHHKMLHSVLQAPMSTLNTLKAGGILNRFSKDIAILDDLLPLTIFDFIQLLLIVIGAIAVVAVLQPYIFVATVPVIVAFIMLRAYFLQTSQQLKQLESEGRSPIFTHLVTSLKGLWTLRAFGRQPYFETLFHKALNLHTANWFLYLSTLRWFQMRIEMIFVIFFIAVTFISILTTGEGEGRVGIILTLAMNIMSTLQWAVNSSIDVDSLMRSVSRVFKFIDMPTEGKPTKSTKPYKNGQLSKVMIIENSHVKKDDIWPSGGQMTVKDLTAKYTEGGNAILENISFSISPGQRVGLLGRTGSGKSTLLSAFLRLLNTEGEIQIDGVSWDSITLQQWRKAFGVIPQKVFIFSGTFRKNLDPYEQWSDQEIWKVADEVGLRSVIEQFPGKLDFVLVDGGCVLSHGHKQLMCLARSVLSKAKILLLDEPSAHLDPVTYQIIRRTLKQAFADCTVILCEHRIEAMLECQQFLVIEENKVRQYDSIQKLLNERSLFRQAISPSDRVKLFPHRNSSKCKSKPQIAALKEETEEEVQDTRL

For `O=C(NS(=O)(=O)c1cccc2ccccc12)C1(c2ccccc2)COc2ccccc21` (centres unmarked) [Example 6, N-(naphthalene-1-sulfonyl)-3-phenyl-2,3-dihydro-1-benzofuran-3-carboxamide], the “Maximum % activity (with co-corrector)” value is recorded as “+++ (≥350)”. Also, the EC50 under setting [1] is < 3 µM. Further, the Emax under setting [2] was 50 to 150%. Under setting [3], the EC50 was < 3 µM.
Take `O=C(NS(=O)(=O)c1cccc2ccccc12)C1CCOc2c(Cl)cccc21` (centres unmarked) [Example 7, 8-chloro-N-(naphthalene-1-sulfonyl)-3,4-dihydro-2H-1-benzopyran-4-carboxamide]: the “Maximum % activity (with co-corrector)” value is given as “+++ (≥350)”. In addition, the EC50 under setting [1] was in the range of 3 to 10 µM. Also, the Emax under setting [2] is ≥ 150%. Besides, the EC50 under setting [3] is 3 to 10 µM.
Turning to `CCC1(C(=O)NS(=O)(=O)c2cccc3ccccc23)COc2cccc(OC)c21` (centres unmarked) [Example 8, 3-ethyl-4-methoxy-N-(naphthalene-1-sulfonyl)-2,3-dihydro-1-benzofuran-3-carboxamide], the “Maximum % activity (with co-corrector)” value is “+++ (≥350)”. The EC50 under setting [1] lay within 3 to 10 µM. For the same compound, under setting [2], the Emax was ≥ 150%. The EC50 under setting [3] is < 3 µM.
Regarding `COc1cccc2c1C(C(=O)NS(=O)(=O)c1cccc3ccccc13)CCO2` (centres unmarked) [Example 9, 5-methoxy-N-(naphthalene-1-sulfonyl)-3,4-dihydro-2H-1-benzopyran-4-carboxamide], the “Maximum % activity (with co-corrector)” value is “+++ (≥350)”. In addition, under setting [1], the EC50 lay within 3 to 10 µM. Also, the Emax under setting [2] was ≥ 150%. Moreover, the EC50 under setting [3] lay within 3 to 10 µM.
For the compound `CCC1(C(=O)NS(=O)(=O)c2cccc3ccccc23)CCOc2cccc(OC)c21` (centres unmarked) [Example 10, 4-ethyl-5-methoxy-N-(naphthalene-1-sulfonyl)-3,4-dihydro-2H-1-benzopyran-4-carboxamide], the “Maximum % activity (with co-corrector)” value was “+++ (≥350)”. In addition, the EC50 under setting [1] is < 3 µM. Besides, the Emax under setting [2] was ≥ 150%. For the same compound, the 50% effective concentration (EC50) under setting [3] is < 3 µM.
Regarding `COc1ccc(Br)c2c1C(C(=O)NS(=O)(=O)c1cccc3ccccc13)CCO2` (centres unmarked) [Example 11, 8-bromo-5-methoxy-N-(naphthalene-1-sulfonyl)-3,4-dihydro-2H-1-benzopyran-4-carboxamide], the “Maximum % activity (with co-corrector)” value is recorded as “+++ (≥350)”. Further, the half-maximal effective concentration (EC50) under setting [1] was < 3 µM. Further, the Emax under setting [2] is ≥ 150%. For the same compound, the EC50 under setting [3] was < 3 µM.
As for `COc1c(Br)cc(Br)c2c1C(C(=O)NS(=O)(=O)c1cccc3ccccc13)CCO2` (centres unmarked) [Example 12, 6,8-dibromo-5-methoxy-N-(naphthalene-1-sulfonyl)-3,4-dihydro-2H-1-benzopyran-4-carboxamide], the “Maximum % activity (with co-corrector)” value was “+++ (≥350)”. Moreover, under setting [1], the EC50 lay in the range of 3 to 10 µM. The Emax under setting [2] is ≥ 150%. Also, under setting [3], the EC50 was in the range of 3 to 10 µM.
Turning to `COc1ccc(C2CCC2)c2c1C(C(=O)NS(=O)(=O)c1cccc3ccccc13)CCO2` (centres unmarked) [Example 13, 8-cyclobutyl-5-methoxy-N-(naphthalene-1-sulfonyl)-3,4-dihydro-2H-1-benzopyran-4-carboxamide], the “Maximum % activity (with co-corrector)” value is “+++ (≥350)”. For the same compound, the EC50 under setting [1] was < 3 µM. Further, the Emax under setting [2] was ≥ 150%. In addition, the EC50 under setting [3] is < 3 µM.
Regarding `COc1ccc(C2CCCC2)c2c1C(C(=O)NS(=O)(=O)c1cccc3ccccc13)CCO2` (centres unmarked) [Example 14, 8-cyclopentyl-5-methoxy-N-(naphthalene-1-sulfonyl)-3,4-dihydro-2H-1-benzopyran-4-carboxamide], the “Maximum % activity (with co-corrector)” value is given as “+++ (≥350)”. In addition, under setting [1], the EC50 was < 3 µM. In addition, the Emax under setting [2] was ≥ 150%. Also, under setting [3], the EC50 was < 3 µM.
With `CCC1(C(=O)NS(=O)(=O)c2cccc3ccccc23)COc2c(OC)cccc21` (centres unmarked) [Example 15, 3-ethyl-7-methoxy-N-(naphthalene-1-sulfonyl)-2,3-dihydro-1-benzofuran-3-carboxamide], the “Maximum % activity (with co-corrector)” value is reported as “+++ (≥350)”. Also, the EC50 under setting [1] was 3 to 10 µM. The Emax under setting [2] was in the range of 50 to 150%. The EC50 under setting [3] is 3 to 10 µM.
Consider `Cc1ccccc1S(=O)(=O)NC(=O)C1(C)Cc2ccccc2O1` (centres unmarked) [Example 16, 2-methyl-N-(2-methylbenzene-1-sulfonyl)-2,3-dihydro-1-benzofuran-2-carboxamide], for which the “Maximum % activity (with co-corrector)” value is “+ (<150)”. Besides, the EC50 under setting [1] was ≥ 10 µM. In addition, the Emax under setting [2] was < 50%. For the same compound, the EC50 under setting [3] was ≥ 10 µM.
`Cc1ccccc1S(=O)(=O)NC(=O)C1Cc2ccccc2O1` (centres unmarked) [Example 17, N-(2-methylbenzene-1-sulfonyl)-2,3-dihydro-1-benzofuran-2-carboxamide]: the “Maximum % activity (with co-corrector)” value is recorded as “+ (<150)”. Also, under setting [1], the EC50 is ≥ 10 µM. In addition, under setting [2], the Emax is < 50%. In addition, the EC50 under setting [3] is ≥ 10 µM.
In the case of `Cc1ccc2c(c1)C(C(=O)NS(=O)(=O)c1cccc3ccccc13)(c1ccccc1)CCO2` (centres unmarked) [Example 18, 6-methyl-N-(naphthalene-1-sulfonyl)-4-phenyl-3,4-dihydro-2H-1-benzopyran-4-carboxamide], the “Maximum % activity (with co-corrector)” value is reported as “+++ (≥350)”. The EC50 under setting [1] fell in the range of 3 to 10 µM. For the same compound, under setting [2], the Emax was in the range of 50 to 150%. Further, under setting [3], the EC50 was < 3 µM.
As for `O=C(NS(=O)(=O)c1cccc2ccccc12)C1(c2ccccc2)CCOc2ccc(Cl)cc21` (centres unmarked) [Example 19, 6-chloro-N-(naphthalene-1-sulfonyl)-4-phenyl-3,4-dihydro-2H-1-benzopyran-4-carboxamide], the “Maximum % activity (with co-corrector)” value was “+++ (≥350)”. Also, the EC50 under setting [1] was in the range of 3 to 10 µM. Moreover, the Emax under setting [2] was ≥ 150%. For the same compound, under setting [3], the EC50 lay within 3 to 10 µM.
For the compound `COc1cccc2c1C(C(=O)NS(=O)(=O)c1cccc3ccccc13)CO2` (centres unmarked) [Example 20, 4-methoxy-N-(naphthalene-1-sulfonyl)-2,3-dihydro-1-benzofuran-3-carboxamide], the “Maximum % activity (with co-corrector)” value was “++ (≥150 and <350)”. Besides, the EC50 under setting [1] is 3 to 10 µM. Moreover, the maximal response (Emax) under setting [2] is < 50%. Besides, the EC50 under setting [3] is < 3 µM.
Consider `O=C(NS(=O)(=O)c1cccc2ccccc12)C1COc2c(Br)cccc21` (centres unmarked) [Example 21, 7-bromo-N-(naphthalene-1-sulfonyl)-2,3-dihydro-1-benzofuran-3-carboxamide], for which the “Maximum % activity (with co-corrector)” value is “++ (≥150 and <350)”. The EC50 under setting [1] was 3 to 10 µM. The Emax under setting [2] fell in the range of 50 to 150%. The EC50 under setting [3] was in the range of 3 to 10 µM.
Take `CCC1(C(=O)NS(=O)(=O)c2cccc3ccccc23)COc2c(Br)cccc21` (centres unmarked) [Example 22, 7-bromo-3-ethyl-N-(naphthalene-1-sulfonyl)-2,3-dihydro-1-benzofuran-3-carboxamide]: the “Maximum % activity (with co-corrector)” value is listed as “+++ (≥350)”. Besides, the EC50 under setting [1] is 3 to 10 µM. The Emax under setting [2] was ≥ 150%. In addition, under setting [3], the EC50 lay within 3 to 10 µM.
